Reference: PMC3809587, “Structure and function of the Smoothened extracellular domain in vertebrate Hedgehog signaling” (eLife, 2013)
Entries after “also recorded” stand apart in the source; their conditions may differ. Like-named read-outs stand apart in the source and are kept apart here. One block for each compound: values may come before it.

Legend:
[1] = molecular target: T1, mSmo D477H (Mus musculus, UniProt P56726, D477H); test: Hh reporter assay in Smo−/− cells transfected with mSmo D477H; type: cell-based; conditions: Shh, 25 µM, 48 hr
T1 construct: All mSmo mutants were made using Quickchange or PCR methods in the context of a previously described construct encoding full-length mouse Smo (UniProt P56726); expressed in transfected cells; host or cells: Smo-/- mouse embryonic fibroblasts (transient)
Experimental: (§1) For reporter assays in NIH 3T3 cells, a 10-cm plate of cells was transfected with 8 μg of a 4:1 wt/wt ratio of firefly luciferase reporter driven by an 8xGli-responsive promoter ([Sasaki et al., 1997]) and a Renilla luciferase reporter driven by a constitutive TK promoter (Promega, Madison, WI). The next day, transfected cells were seeded into a 96-well plate, grown to confluence, and treated overnight with drugs diluted in media containing 0.5% fetal bovine serum (FBS). For reporter assays in Smo^−/− cells, 25,000 cells per well were seeded in a 24-well plate 24 hr prior to transfection. The next day, after a media replacement step, each well was transfected with 1 ng Smo construct and 500 ng of the reporter mix described above, using Xtreme Gene HP (Roche, Mannheim, Germany). After overnight transfection, the media were once again changed to fresh media. Cells were grown to confluence and treated with drugs diluted in media with 0.5% FBS for 48 hr. Activity of both reporters was measured using the Dual-Luciferase Reporter kit (Promega) and read on a Synergy H1 Hybrid Multi-Mode Microplate Reader (BioTek, Winooski, VT). The Gli luciferase to Renilla luciferase ratio is reported as ‘Hedgehog reporter activity’. Each experiment, which included three technical replicates, was repeated at least three times.

[2] = molecular target: T2, full-length mSmo (Mus musculus, UniProt P56726); test: Bodipy-cyclopamine binding to Smo-expressing cells by FACS
T2 construct: expressed in transfected cells

[3] = system: Hh reporter (8xGli-responsive promoter); test: Luciferase-based Hh reporter assay; type: cell-based, mouse; conditions: in the absence of Shh
Experimental: For reporter assays in NIH 3T3 cells, a 10-cm plate of cells was transfected with 8 μg of a 4:1 wt/wt ratio of firefly luciferase reporter driven by an 8xGli-responsive promoter ([Sasaki et al., 1997]) and a Renilla luciferase reporter driven by a constitutive TK promoter (Promega, Madison, WI). The next day, transfected cells were seeded into a 96-well plate, grown to confluence, and treated overnight with drugs diluted in media containing 0.5% fetal bovine serum (FBS). For reporter assays in Smo^−/− cells, 25,000 cells per well were seeded in a 24-well plate 24 hr prior to transfection. […] Activity of both reporters was measured using the Dual-Luciferase Reporter kit (Promega) and read on a Synergy H1 Hybrid Multi-Mode Microplate Reader (BioTek, Winooski, VT). […]
For Hh reporter assays, each point is reported as the mean ± standard deviation (SD) derived from triplicates. […] Relative luciferase activity was calculated by dividing Gli luciferase by Renilla luciferase luminescence. Fold-change in reporter activity was calculated by dividing each replicate by the mean reporter activity of the vehicle-treated control. Normalized (% of max) Hh reporter activity was calculated by setting the maximum value of a set to 100% and zero to 0% using the ‘normalize’ function of GraphPad Prism. […]

[4] = molecular target: T3, mSmoM2 (Mus musculus, UniProt P56726, W539L); test: Hh reporter assay in NIH 3T3 cells transfected with mSmoM2; type: cell-based; conditions: 10 µM each, 12 hr
T3 construct: All mSmo mutants were made using Quickchange or PCR methods in the context of a previously described construct encoding full-length mouse Smo (UniProt P56726); expressed in transfected cells; host or cells: NIH 3T3 cells
Experimental: as §1

[5] = molecular target: T4, mSmo CRD-Fc (Mus musculus, UniProt P56726); test: Ligand affinity chromatography: mSmo CRD-Fc binding to 20(S)-OHC beads; conditions: free compound added as competitor
T4 construct: made in house; host or cells: 293F suspension cells (secreted)
T4 sequence (P56726 33-183): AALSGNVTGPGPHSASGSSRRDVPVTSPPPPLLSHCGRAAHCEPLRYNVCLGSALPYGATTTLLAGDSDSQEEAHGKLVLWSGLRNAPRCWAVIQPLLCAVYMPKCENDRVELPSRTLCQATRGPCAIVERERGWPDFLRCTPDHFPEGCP
Experimental: After binding was allowed to proceed for 12 hr at 4°C, the resin was washed and captured protein was eluted as described above. The presence of mSmo CRD-Fc was measured by an anti-human HRP-coupled antibody (1:20,000) or anti-human IR800-coupled antibody (1:10,000; for all quantitation, detected by LiCor Odyssey). The presence of zSmo ectodomain protein was measured by colloidal Coomassie staining (GelCode Blue, Pierce/Thermo Scientific). […]

[6] = molecular target: T5, ΔCRD-YFP-mSmo (Mus musculus, UniProt P56726, DEL68-184); test: Hh signaling by ΔCRD-YFP-mSmo in Smo−/− cells (immunoblot, Hh reporter); type: cell-based; conditions: SAG 100 nM, 20(S)-OHC 10 μM
T5 construct: All mSmo mutants were made using Quickchange or PCR methods in the context of a previously described construct encoding full-length mouse Smo (UniProt P56726); expressed in transfected cells

[7] = molecular target: T6, YFP-mSmo (Mus musculus, UniProt P56726); test: Gli1 and Gli3R immunoblot in Smo−/−:YFP-mSmo cells; type: cell-based; conditions: SAG 100 nM, 20(S)-OHC 10 μM
T6 construct: Smo^−/− cells stably expressing full-length (FL) YFP-mSmo or ΔCRD-YFP-mSmo were treated with Shh, SAG (100 nM) or 20(S)-OHC (10 μM); expressed in transfected cells
Experimental: Cultured cells stably expressing YFP-mSmo, ΔCRD-YFP-mSmo, or ΔC-YFP-mSmo were scraped into ice-cold PBS containing SigmaFast Protease inhibitor cocktail (Sigma) and collected as a pellet by centrifugation (1000×g, 10 min, 4°C). Cells were lysed (1 hr, 4°C) by agitation in modified RIPA buffer (50 mM sodium-Tris pH 7.4, 150 mM sodium chloride, 2% NP-40, 0.5% deoxycholate, 0.1% sodium-dodecyl sulfate [SDS], 1 mM dithiothreitol and the SigmaFast Protease inhibitor cocktail). After clarification (20,000×g, 45 min, 4°C), the protein concentration of each lysate was measured using the bicinchoninic acid assay (BCA, Pierce/Thermo Scientific, Rockford, IL). Lysate aliquots containing equal amount of total protein were fractionated on an 8% SDS-PAGE gel and transferred to a nitrocellulose membrane for immunoblotting with anti-Gli1 antibody (#L42B10, 1:500; Cell Signaling, Denvers, MA), anti-GFP antibody (1:5000; Novus, Littleton, CO), anti-Gli3 antibody (AF3690 1:200; R&D, Minneapolis, MN) and anti-p38 antibody (ab31828, 1:2000; Abcam, Cambridge, MA). In Figures 1–4, vertical dashed black lines represent non-contiguous lanes from the same immunoblot juxtaposed for clarity.

[8] = system: endogenous mSmo in cilia of NIH 3T3 cells; parameters: method as in Rohatgi et al., 2009; conditions: ref Rohatgi et al., 2009; cited from earlier work
[9] = system: Hh reporter (8xGli-responsive promoter); conditions: cited from earlier work
[10] = system: Smo; conditions: ref Wang et al., 2012; cited from earlier work

T2 sequence (P56726 33-793): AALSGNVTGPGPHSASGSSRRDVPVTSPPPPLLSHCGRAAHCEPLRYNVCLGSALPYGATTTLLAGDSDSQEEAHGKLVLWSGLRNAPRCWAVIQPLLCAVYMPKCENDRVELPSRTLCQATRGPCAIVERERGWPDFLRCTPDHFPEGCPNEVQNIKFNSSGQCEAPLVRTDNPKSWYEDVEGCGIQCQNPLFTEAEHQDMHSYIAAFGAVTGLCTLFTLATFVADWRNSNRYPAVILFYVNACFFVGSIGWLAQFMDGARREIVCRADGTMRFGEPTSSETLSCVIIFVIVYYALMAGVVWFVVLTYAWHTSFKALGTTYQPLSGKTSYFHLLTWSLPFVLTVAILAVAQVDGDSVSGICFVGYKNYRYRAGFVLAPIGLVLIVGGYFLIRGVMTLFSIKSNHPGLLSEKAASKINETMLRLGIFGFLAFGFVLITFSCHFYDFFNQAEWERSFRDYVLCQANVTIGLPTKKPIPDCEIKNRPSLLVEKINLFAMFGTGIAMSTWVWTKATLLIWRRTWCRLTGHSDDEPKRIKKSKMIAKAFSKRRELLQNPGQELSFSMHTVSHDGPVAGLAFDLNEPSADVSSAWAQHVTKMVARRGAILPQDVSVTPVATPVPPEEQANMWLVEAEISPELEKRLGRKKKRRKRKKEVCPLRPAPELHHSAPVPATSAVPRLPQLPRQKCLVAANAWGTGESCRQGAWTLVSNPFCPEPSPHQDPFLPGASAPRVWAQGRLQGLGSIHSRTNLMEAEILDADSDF
T3 sequence (P56726 33-793 W539L): as the sequence (P56726 33-793) above, with W507L counted along it
T6 sequence (P56726 33-793): as the sequence (P56726 33-793) above
T1 sequence (P56726 33-793 D477H): as the sequence (P56726 33-793) above, with D445H counted along it
T5 sequence (P56726 with tags, fused parts or gaps DEL68-184): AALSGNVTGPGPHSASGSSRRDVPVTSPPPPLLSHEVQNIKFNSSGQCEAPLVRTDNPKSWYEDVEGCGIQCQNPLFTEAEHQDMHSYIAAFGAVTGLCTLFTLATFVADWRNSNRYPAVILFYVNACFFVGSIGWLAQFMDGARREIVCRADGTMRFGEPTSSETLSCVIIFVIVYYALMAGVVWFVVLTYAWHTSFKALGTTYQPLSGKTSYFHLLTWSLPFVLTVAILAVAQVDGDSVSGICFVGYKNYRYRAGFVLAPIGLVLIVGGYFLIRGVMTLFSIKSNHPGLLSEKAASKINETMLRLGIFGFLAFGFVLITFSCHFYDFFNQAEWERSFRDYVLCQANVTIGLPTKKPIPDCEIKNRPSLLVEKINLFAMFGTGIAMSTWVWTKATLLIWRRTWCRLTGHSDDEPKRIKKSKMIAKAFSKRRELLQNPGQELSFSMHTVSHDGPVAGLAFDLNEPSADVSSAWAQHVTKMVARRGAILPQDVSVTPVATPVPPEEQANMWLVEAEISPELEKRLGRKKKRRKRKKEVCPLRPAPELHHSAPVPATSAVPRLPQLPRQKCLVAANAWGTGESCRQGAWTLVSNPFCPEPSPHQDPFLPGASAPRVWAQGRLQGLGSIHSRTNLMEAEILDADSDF

Compound: (3β, 17β)-17-[(2R)-2-hydroxy-hex-4-yn-2-yl]-androst-5-en-3-ol [20(R)-yne]
- signaling by mSmo D477H [1]: reduced signaling
- competition of bodipy-cyclopamine binding [2]: did not affect the binding
- activation of Hh signaling [3]: weak activators of signaling
- signaling by mSmoM2 [4]: reduced signaling
- inhibition of binding of mSmo CRD-Fc to 20(S)-OHC beads [5]: blocked the binding

- response of ΔCRD-YFP-mSmo to agonist (Hh target genes, Gli3R) [6]: retained its ability to respond to SAG
- activation of Hh target gene Gli1 [7]: could activate a Hh target gene, Gli1
- inhibition of binding of mSmo CRD-Fc to 20(S)-OHC beads [5]: failed to inhibit the binding
Compound: CNC1CCC(N(Cc2cccc(-c3ccncc3)c2)C(=O)c2sc3ccccc3c2Cl)CC1 (stereo not shown) [SAG]
- Gli3R level [7]: loss of the repressor form of Gli3 (Gli3R) was observed

- competition of bodipy-cyclopamine binding [2]: can be competed
- inhibition of binding of mSmo CRD-Fc to 20(S)-OHC beads [5]: failed to inhibit the binding
Compound: Cc1nn(-c2ccccc2)c(C)c1/C=N/N1CCN(Cc2ccccc2)CC1 [SANT-1]
- Shh-induced Smo accumulation in cilia [8]: prevent Shh-induced Smo accumulation in cilia

- inhibition of binding of mSmo CRD-Fc to 20(S)-OHC beads [5]: unable to inhibit binding
Compound: CC(C)CCC[C@@](C)(O)[C@@H]1CC[C@@H]2[C@H]3CC=C4C[C@H](O)CC[C@@]4(C)[C@@H]3CC[C@]21C [ent-20(S)-OHC]
- activation of Hh signaling ([9]; ref Nachtergaele et al., 2012): cannot activate Hh signaling

Compound: CC(C)CCCC(=O)[C@H]1CC[C@H]2[C@@H]3CC=C4C[C@@H](O)CC[C@]4(C)[C@H]3CC[C@]12C [20-keto-cholesterol]
- inhibition of binding of mSmo CRD-Fc to 20(S)-OHC beads [5]: failed to inhibit

Compound: CC(C)C(=O)OCC(=O)[C@@]12O[C@H](C3CCCCC3)O[C@@H]1C[C@H]1[C@@H]3CCC4=CC(=O)C=C[C@]4(C)[C@H]3[C@@H](O)C[C@@]12C [Ciclesonide]
- competition with cyclopamine for binding to Smo [10]: fail to compete with cyclopamine for binding to Smo

- inhibition of binding of mSmo CRD-Fc to 20(S)-OHC beads [5]: unable to inhibit binding
Compound: CC(C)CC[C@H](O)[C@@H](C)[C@H]1CC[C@H]2[C@@H]3CC=C4C[C@@H](O)CC[C@]4(C)[C@H]3CC[C@]12C [22(S)-OHC]
- activation of Hh signaling ([9]; ref Nachtergaele et al., 2012): cannot activate Hh signaling

Compound: C#CCC[C@](C)(O)[C@H]1CC[C@H]2[C@@H]3CC=C4C[C@@H](O)CC[C@]4(C)[C@H]3CC[C@@]21C [20(S)-yne]
- inhibition of binding of mSmo CRD-Fc to 20(S)-OHC beads [5]: Binding could be inhibited
- potency relative to 20(S)-OHC ([9]; Hh-activation potency, ref Nachtergaele et al., 2012): ~10 fold

Compound: C#CCCC(=O)[C@H]1CC[C@H]2[C@@H]3CC=C4C[C@@H](O)CC[C@]4(C)[C@H]3CC[C@]12C [20-keto-yne, (3β, 17β)-17-(1-oxopent-4-yn-1-yl)-androst-5-en-3-ol]
- signaling by mSmo D477H [1]: reduced signaling
- competition of bodipy-cyclopamine binding [2]: did not affect the binding
- activation of Hh signaling [3]: weak activators of signaling
- signaling by mSmoM2 [4]: reduced signaling
- inhibition of binding of mSmo CRD-Fc to 20(S)-OHC beads [5]: blocked the binding

Compound: CCCC1O[C@@H]2C[C@H]3[C@@H]4CCC5=CC(=O)C=C[C@]5(C)[C@H]4[C@@H](O)C[C@]3(C)[C@]2(C(=O)CO)O1 (stereo partly shown) [Budesonide]
- competition with cyclopamine for binding to Smo [10]: fail to compete with cyclopamine for binding to Smo

Compound: CC(C)CCN[C@@H](C)[C@H]1CC[C@H]2[C@@H]3CC=C4C[C@@H](O)CC[C@]4(C)[C@H]3CC[C@]12C [22-azacholesterol]
- block of signaling induced by SAG or by mSmoM2 ([9]; ref Nedelcu et al., 2013): does not block signaling induced by SAG or by mSmoM2

Compound: CC(C)CCC[C@@](C)(O)[C@H]1CC[C@H]2[C@@H]3CC=C4C[C@@H](O)CC[C@]4(C)[C@H]3CC[C@@]21C [20(R)-OHC]
- inhibition of binding of mSmo CRD-Fc to 20(S)-OHC beads [5]: unable to inhibit binding; also recorded: failed to inhibit
- activation of Hh signaling ([9]; ref Nachtergaele et al., 2012): cannot activate Hh signaling

- inhibition of binding of mSmo CRD-Fc to 20(S)-OHC beads [5]: failed to inhibit the binding
Compound: CCC(C)n1ncn(-c2ccc(N3CCN(c4ccc(OCC5COC(Cn6cncn6)(c6ccc(Cl)cc6Cl)O5)cc4)CC3)cc2)c1=O (stereo not shown) [Itraconazole]

Compound: CS(=O)(=O)c1ccc(C(=O)Nc2ccc(Cl)c(-c3ccccn3)c2)c(Cl)c1 [Vismodegib]
- Shh-induced Smo accumulation in cilia [8]: prevent Shh-induced Smo accumulation in cilia
